Measured values taken from patent publication US20210355121A1, “FUSED TRICYCLIC KRAS INHIBITORS” (Incyte Corporation, priority 2020, published 2021).
pIC50: −log10 of the molar value.

Assays:
KRAS G12C = KRAS G12C (Homo sapiens, UniProt P01116, G12C); assay: KRAS G12C GDP-GTP exchange assay (bodipy-GDP for GppNHp, with SOS1); format: biochemical; design: G12C_exchange (KRAS_G12C exchange assay IC50): scale not given here; conditions: 2.5 nM bodipy-loaded KRAS G12C, 2 hours pre-incubation with inhibitor, 2 hours after GppNHp-SOS1; for pIC50: read-out: G12C_exchange (KRAS_G12C exchange assay IC50)
Sequence of KRAS G12C (P01116 1-188 isoform P01116-2 G12C): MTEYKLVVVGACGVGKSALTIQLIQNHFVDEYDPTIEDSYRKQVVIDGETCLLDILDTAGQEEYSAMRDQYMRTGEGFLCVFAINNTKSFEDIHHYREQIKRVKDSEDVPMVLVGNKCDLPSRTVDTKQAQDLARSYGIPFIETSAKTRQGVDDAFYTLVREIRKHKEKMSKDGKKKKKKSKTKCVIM
Procedure: The inhibitor potency of the exemplified compounds was determined in a fluorescence based guanine nucleotide exchange assay, which measures the exchange of bodipy-GDP (fluorescently labeled GDP) for GppNHp (Non-hydrolyzable GTP analog) to generate the active state of KRAS in the presence of SOS1 (guanine nucleotide exchange factor). Inhibitors were serially diluted in DMSO and a volume of 0.1 μL was transferred to the wells of a black low volume 384-well plate. 5 μL/well volume of bodipy-loaded KRAS G12C diluted to 5 nM in assay buffer (25 mM Hepes pH 7.5, 50 mM NaCl, 10 mM MgCl2 and 0.01% Brij-35) was added to the plate and pre-incubated with inhibitor for 2 hours at ambient temperature. Appropriate controls (enzyme with no inhibitor or with a G12C inhibitor (AMG-510)) were included on the plate. The exchange was initiated by the addition of a 5 μL/well volume containing 1 mM GppNHp and 300 nM SOS1 in assay buffer. The 10 μL/well reaction concentration of the bodipy-loaded KRAS G12C, GppNHp, and SOS1 were 2.5 nM, 500 uM, and 150 nM, respectively. The reaction plates were incubated at ambient temperature for 2 hours, a time estimated for complete GDP-GTP exchange in the absence of inhibitor. For the KRAS G12D and G12V mutants, similar guanine nucleotide exchange assays were used with 2.5 nM as final concentration for the bodipy loaded KRAS proteins and with 4 hours and 3 hours incubation after adding GppNHp-SOS1 mixture for G12D and G12V respectively. A cyclic peptide described to selectively bind G12D mutant (Sakamoto et al., BBRC 484.3 (2017), 605-611) or internal compounds with confirmed binding were used as positive controls in the assay plates. Fluorescence intensities were measured on a PheraStar plate reader instrument (BMG Labtech) with excitation at 485 nm and emission at 520 nm.
Either GraphPad prism or XLfit was used to analyze the data. The IC50 values were derived by fitting the data to a four parameter logistic equation producing a sigmoidal dose-response curve with a variable Hill coefficient. Prism equation: Y=Bottom+(Top−Bottom)/(1+10^((Log IC50−X)*Hill slope)); XLfit equation: Y=(A+((B−A)/(1+((X/C)^D)))) where X is the logarithm of inhibitor concentration and Y is the response.

[1] = system: MIA PaCa-2 (KRAS G12C) cells; assay: KRAS_G12C cellular pERK HTRF assay; format: cell-based, human; conditions: Homo sapiens, MIA PaCa-2; phospho-ERK1/2 HTRF, 4 hours incubation; read-out: G12C_pERK (KRAS_G12C pERK assay IC50)
Procedure: MIA PaCa-2 (KRAS G12C; ATCC® CRL-1420), A427 (KRAS G12D; ATCC® HTB53), HPAF-II (KRAS G12D; ATCC® CRL-1997) and NCI-H838 (KRAS WT; ATCC® CRL-5844) cells are purchased from ATCC and maintained in RPMI 1640 media supplemented with 10% FBS (Gibco/Life Technologies). The cells are plated at 5000 cells per well (8 uL) into Greiner 384-well low volume, flat-bottom, tissue culture treated white plates and incubated overnight at 37° C., 5% CO2. The next morning, test compound stock solutions are diluted in media at 3× the final concentration, and 4 uL are added to the cells. The plate is mixed by gentle rotation for 30 seconds (250 rpm) at room temperature. The cells are incubated with the KRAS G12C and G12D compounds for 4 hours or 2 hours respectively at 37° C., 5% CO2.
4 uL of 4× lysis buffer with blocking reagent (1:25) (Cisbio) are added to each well and plates are rotated gently (300 rpm) for 30 minutes at room temperature. 4 uL per well of Cisbio anti Phospho-ERK 1/2 d2 is mixed with anti Phospho-ERK 1/2 Cryptate (1:1) are added to each well, mixed by rotation and incubated overnight in the dark at room temperature. Plates are read on the Pherastar plate reader at 665 nm and 620 nm wavelengths. IC50 determination is performed by fitting the curve of inhibitor percent inhibition versus the log of the inhibitor concentration using the GraphPad Prism 7 software.

SMILES | G12C_exchange (KRAS_G12C exchange assay IC50) (KRAS G12C) | pIC50 (KRAS G12C) | pIC50 [1]
C=CC(=O)N1CC[C@H](n2ncc3c(N4CC(C)(N(C)C)C4)nc4c(F)c(-c5c(C)c(Cl)cc6[nH]ncc56)c(Cl)cc4c32)C[C@H]1CC#N (single isomer, unassigned) [Example 16b] | †† | – | –
COC/C=C/C(=O)N1CC[C@H](n2ncc3c(N4CC(C)(N(C)C)C4)nc4c(F)c(-c5c(C)c(C)cc6[nH]ncc56)c(C)cc4c32)C[C@H]1CC#N (single isomer, unassigned) [Example 65a] | – | ≥ 7.00 | ≥ 7.00
C=CC(=O)N1CC[C@H](n2ncc3c(OC[C@@H]4CCCN4C)nc4c(F)c(-c5c(C)c(Cl)cc6[nH]ncc56)c(Cl)cc4c32)C[C@H]1CC#N (single isomer, unassigned) [Example 20b] | – | ≥ 7.00 | –
COC/C=C/C(=O)N1CC[C@H](n2ncc3c(OC[C@@H]4CCCN4C)nc4c(F)c(-c5c(C)c(C)cc6[nH]ncc56)c(Cl)cc4c32)C[C@H]1CC#N (single isomer, unassigned) [Example 79a] | – | ≥ 7.00 | ≥ 7.00
CC#CC(=O)N1CC[C@H](n2ncc3c(N4CC(C)(N(C)C)C4)nc4c(F)c(-c5c(C)c(C)cc6[nH]ncc56)c(Cl)cc4c32)C[C@H]1CC#N (single isomer, unassigned) [Example 82a] | – | ≥ 7.00 | ≥ 7.00
Cc1cc2[nH]ncc2c(-c2c(Cl)cc3c(nc(N4CC(N(C)C)C4)c4cnn([C@H]5CCN(C(=O)/C=C/CF)[C@H](CC#N)C5)c43)c2F)c1C (single isomer, unassigned) [Example 72a] | – | ≥ 7.00 | ≥ 7.00
Cc1cc2[nH]ncc2c(-c2c(Cl)cc3c(nc(N4CC(C)(N(C)C)C4)c4cnn([C@H]5CCN(C(=O)/C=C/CN(C)C)[C@H](CC#N)C5)c43)c2F)c1C (single isomer, unassigned) [Example 84a] | – | ≥ 7.00 | ≥ 7.00
Cc1cccc(-c2c(Cl)cc3c(nc(N4CC(N(C)C)C4)c4cnn([C@H]5CCN(C(=O)/C=C/CN(C)C)[C@H](CC#N)C5)c43)c2F)c1Cl [Example 24, 2-((2S,4S)-4-(8-chloro-7-(2-chloro-3-methylphenyl)-4-(3-(dimethylamino)azetidin-1-yl)-6-fluoro-1H-pyrazolo[4,3-c]quinolin-1-yl)-1-((E)-4-(dimethylamino)but-2-enoyl)piperidin-2-yl)acetonitrile] | – | ≥ 7.00 | ≥ 7.00
Cc1c(Cl)cc2[nH]ncc2c1-c1c(Cl)cc2c(nc(N3CC(N(C)C)C3)c3cnn([C@H]4CCN(C(=O)/C=C/C(F)F)[C@H](CC#N)C4)c32)c1F (single isomer, unassigned) [Example 7b] | †† | – | –
Cc1c(Cl)cc2[nH]ncc2c1-c1c(Cl)cc2c(nc(N3CC(N(C)C)C3)c3cnn([C@H]4CCN(C(=O)/C=C/CF)[C@H](CC#N)C4)c32)c1F (single isomer, unassigned) [Example 6b] | †† | – | –
C=CC(=O)N1CC[C@H](n2ncc3c(N4CC(N(C)C)C4)nc4c(F)c(-c5cccc(C)c5C(F)(F)F)c(Cl)cc4c32)C[C@H]1CC#N [Example 27, 2-((2S,4S)-1-acryloyl-4-(8-chloro-4-(3-(dimethylamino)azetidin-1-yl)-6-fluoro-7-(3-methyl-2-(trifluoromethyl)phenyl)-1H-pyrazolo[4,3-c]quinolin-1-yl)piperidin-2-yl)acetonitrile] | – | ≥ 7.00 | ≥ 7.00
C=C(F)C(=O)N1CC[C@H](n2ncc3c(OCC4CCCN4C)nc4c(F)c(-c5c(C)c(C)cc6[nH]ncc56)c(Cl)cc4c32)C[C@H]1CC#N (single isomer, unassigned) [Example 77a] | – | ≥ 7.00 | ≥ 7.00
C=C(F)C(=O)N1CC[C@H](n2ncc3c(O[C@@H](C)[C@@H]4CCCN4C)nc4c(F)c(-c5c(C)c(C)cc6[nH]ncc56)c(C)cc4c32)C[C@H]1CC#N (single isomer, unassigned) [Example 68b] | – | ≥ 7.00 | ≥ 7.00
Cc1c(Cl)cc2[nH]ncc2c1-c1c(Cl)cc2c(nc(N3CC(C)(N(C)C)C3)c3cnn([C@H]4CCN(C(=O)/C=C/CN(C)C)[C@H](CC#N)C4)c32)c1F (single isomer, unassigned) [Example 10b] | †† | – | –
C=C(F)C(=O)N1CC[C@H](n2ncc3c(N4CC(C)(N(C)C)C4)nc4c(F)c(-c5c(C)c(Cl)cc6[nH]ncc56)c(Cl)cc4c32)C[C@H]1CC#N (single isomer, unassigned) [Example 15b] | †† | – | –
Cc1c(Cl)cc2[nH]ncc2c1-c1c(Cl)cc2c(nc(N3CC(C)(N(C)C)C3)c3cnn([C@H]4CCN(C(=O)/C=C/CF)[C@H](CC#N)C4)c32)c1F (single isomer, unassigned) [Example 13b] | †† | – | –
COC/C=C/C(=O)N1CC[C@H](n2ncc3c(N4CC(N(C)C)C4)nc4c(F)c(-c5c(C)c(Cl)cc6[nH]ncc56)c(Cl)cc4c32)C[C@H]1CC#N (single isomer, unassigned) [Example 5b] | †† | – | –
CC#CC(=O)N1CC[C@H](n2ncc3c(OC[C@@H]4CCCN4C)nc4c(F)c(-c5c(C)c(Cl)cc6[nH]ncc56)c(Cl)cc4c32)C[C@H]1CC#N (single isomer, unassigned) [Example 18b] | †† | – | –
CC#CC(=O)N1CC[C@H](n2ncc3c(N4CC(N(C)C)C4)nc4c(F)c(-c5c(C)c(Cl)cc6[nH]ncc56)c(Cl)cc4c32)C[C@H]1CC#N (single isomer, unassigned) [Example 9b] | †† | – | –
CC#CC(=O)N1CC[C@H](n2ncc3c(N4CC(C)(N(C)C)C4)nc4c(F)c(-c5c(C)c(Cl)cc6[nH]ncc56)c(Cl)cc4c32)C[C@H]1CC#N (single isomer, unassigned) [Example 11b] | †† | – | –
COC/C=C/C(=O)N1CC[C@H](n2ncc3c(OC[C@@H]4CCCN4C)nc4c(F)c(-c5c(C)c(Cl)cc6[nH]ncc56)c(Cl)cc4c32)C[C@H]1CC#N (single isomer, unassigned) [Example 19b] | †† | – | –
C=C(F)C(=O)N1CC[C@H](n2ncc3c(N4CC(N(C)C)C4)nc4c(F)c(-c5c(C)c(Cl)cc6[nH]ncc56)c(Cl)cc4c32)C[C@H]1CC#N (single isomer, unassigned) [Example 8b] | †† | – | –
COC/C=C/C(=O)N1CC[C@H](n2ncc3c(N4CC(C)(N(C)C)C4)nc4c(F)c(-c5c(C)c(Cl)cc6[nH]ncc56)c(Cl)cc4c32)C[C@H]1CC#N (single isomer, unassigned) [Example 12b] | †† | – | –
Cc1c(Cl)cc2[nH]ncc2c1-c1c(Cl)cc2c(nc(N3CC(C)(N(C)C)C3)c3cnn([C@H]4CCN(C(=O)/C=C/C(F)F)[C@H](CC#N)C4)c32)c1F (single isomer, unassigned) [Example 14b] | †† | – | –
Cc1c(Cl)cc2[nH]ncc2c1-c1c(Cl)cc2c(nc(N3CC(N(C)C)C3)c3cnn([C@H]4CCN(C(=O)/C=C/CN(C)C)[C@H](CC#N)C4)c32)c1F (single isomer, unassigned) [Example 4b] | †† | – | –
